Data on 21 molecules can be found in patent US6756375B2, “10-Aryl-11h-benzo[b]fluorene derivatives and analogs for medicinal use” (Akzo Nobel N.V., priority 2000, dated 2004).

The assay deals with human estrogen receptor β (hERβ) (Homo sapiens, UniProt Q92731). The assay can be described thus: Antiestrogenic activity in the in vitro bioassay: recombinant CHO cells co-transfected with hERβ, rat oxytocin promoter and luciferase reporter gene. As to conditions: potency ratio relative to standard ICI 164.384; inhibition of estradiol-induced luciferase transactivation via hERβ in CHO cells. It counts as cell-based. The procedure: The estrogenic and antiestrogenic activity of compounds is determined in an in vitro bioassay with recombinant Chinese hamster ovary (CHO) cells stably co-transfected with the human estrogen receptor α (hERα) or β receptor (hERβ), the rat oxytocin promoter (RO) and the luciferase reporter gene (LUC). The estrogenic activity (potency ratio) of a test compound to stimulate the transactivation of the enzyme luciferase mediated via the estrogen receptors hERα or hERβ is compared with the standard estrogen estradiol. The antiestrogenic activity (potency ratio) of a test compound to inhibit the transactivation of the enzyme luciferase mediated via the estrogen receptors hERα or hERβ by the estrogen estradiol is compared with the standard ICI 164.384 (=(7α,17β)-N-butyl-3,17-dihydroxy-N-methylestra-1,3,5(10)-triene-7-undecanamide).
human estrogen receptor β (hERβ), sequence (Q92731 whole entry): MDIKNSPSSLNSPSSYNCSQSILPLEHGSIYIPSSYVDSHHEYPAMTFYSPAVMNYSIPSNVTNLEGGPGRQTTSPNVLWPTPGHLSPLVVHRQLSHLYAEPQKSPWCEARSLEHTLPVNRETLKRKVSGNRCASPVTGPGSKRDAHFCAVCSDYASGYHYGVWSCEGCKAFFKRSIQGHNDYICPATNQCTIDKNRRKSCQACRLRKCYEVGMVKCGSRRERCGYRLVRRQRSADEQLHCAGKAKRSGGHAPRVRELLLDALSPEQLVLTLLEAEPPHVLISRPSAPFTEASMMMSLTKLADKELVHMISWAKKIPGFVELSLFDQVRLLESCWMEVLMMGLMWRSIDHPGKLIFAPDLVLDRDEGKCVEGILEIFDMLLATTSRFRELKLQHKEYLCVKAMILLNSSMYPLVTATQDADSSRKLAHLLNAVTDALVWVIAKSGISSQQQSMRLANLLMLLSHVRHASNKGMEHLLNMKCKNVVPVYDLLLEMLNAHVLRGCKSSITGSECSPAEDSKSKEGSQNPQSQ
(In a reporter assay the amount or activity of a reporter protein is the signal.)
Regarding `Oc1ccc2c(c1)Cc1c-2cc2ccc(O)cc2c1-c1ccccc1` [Compound 5v], the ERβ antagonism entry is listed as “+ (5 > 5% (relative to ICI): +)”.
For `Oc1ccc2c(c1)Cc1c-2cc2ccc(O)cc2c1-c1ccc(OC(F)(F)F)cc1` [Compound 5r] the value was “++ (> 40%: ++)”; for `Cc1ccc(-c2c3c(cc4ccc(O)cc24)-c2ccc(O)cc2C3)cc1` [Compound 5e], “++ (> 40%: ++)”.
On to `Oc1ccc2c(c1)Cc1c-2cc2ccc(O)cc2c1-c1ccc(F)cc1` [Compound 5l], for which the ERβ antagonism entry was “++ (> 40%: ++)”.
For `COc1cccc(-c2c3c(cc4ccc(O)cc24)-c2ccc(O)cc2C3)c1` [Compound 5c] the value was “+ (5 > 5% (relative to ICI): +)”; for `Oc1ccc2c(c1)Cc1c-2cc2ccc(O)cc2c1-c1cccc(F)c1` [Compound 5j], “+ (5 > 5% (relative to ICI): +)”; for `Oc1ccc2c(c1)Cc1c-2cc2ccc(O)cc2c1-c1ccc(-c2ccccc2)cc1` [Compound 5h], “+ (5 > 5% (relative to ICI): +)”.
In the case of `Oc1ccc2c(c1)Cc1c-2cc2ccc(O)cc2c1-c1ccc(-c2ccccc2)c(F)c1` [Compound 5s], the ERβ antagonism entry was “+ (5 > 5% (relative to ICI): +)”.
The result for `Oc1ccc2c(c1)Cc1c-2cc2ccc(O)cc2c1-c1ccccc1C(F)(F)F` [Compound 5u] reads “++ (> 40%: ++)”; that for `COc1ccc(-c2c3c(cc4ccc(O)cc24)-c2ccc(O)cc2C3)cc1` [Compound 5k], “+ (5 > 5% (relative to ICI): +)”; that for `Oc1ccc2c(c1)Cc1c-2cc2ccc(O)cc2c1-c1cccc(Cl)c1` [Compound 5n], “+ (5 > 5% (relative to ICI): +)”.
The result for `Oc1ccc2c(c1)Cc1c-2cc2ccc(O)cc2c1-c1ccc(Cl)cc1` [Compound 5a] reads “+ (5 > 5% (relative to ICI): +)”; that for `Oc1ccc2c(c1)Cc1c-2cc2ccc(O)cc2c1-c1ccc2c(c1)OCO2` [Compound 5g], “+ (5 > 5% (relative to ICI): +)”; that for `Oc1ccc2c(c1)Cc1c-2cc2ccc(O)cc2c1-c1ccc(Cl)c(Cl)c1` [Compound 5m], “++ (> 40%: ++)”.
For `Oc1ccc2c(c1)Cc1c-2cc2ccc(O)cc2c1-c1ccc(OCCN2CCCCC2)cc1` [Compound 9] the value was “++ (> 40%: ++)”; for `Oc1ccc2c(c1)Cc1c-2cc2ccc(O)cc2c1-c1ccc(C(F)(F)F)cc1` [Compound 5o], “+ (5 > 5% (relative to ICI): +)”; for `Oc1ccc2c(c1)Cc1c-2cc2ccc(O)cc2c1-c1ccc2ccccc2c1` [Compound 5b], “+ (5 > 5% (relative to ICI): +)”.
As to `Oc1ccc2c(c1)Cc1c-2cc2ccc(O)cc2c1-c1cccc(C(F)(F)F)c1` [Compound 5d], the ERβ antagonism entry is listed as “+ (5 > 5% (relative to ICI): +)”.
For the molecule `Cc1cccc(-c2c3c(cc4ccc(O)cc24)-c2ccc(O)cc2C3)c1` [Compound 5p], the ERβ antagonism result was “+ (5 > 5% (relative to ICI): +)”.
For `CC(C)c1cccc(-c2c3c(cc4ccc(O)cc24)-c2ccc(O)cc2C3)c1` [Compound 5q] the value was “+ (5 > 5% (relative to ICI): +)”.
For `Oc1ccc2c(c1)Cc1c-2cc2ccc(O)cc2c1-c1ccc(F)c(Cl)c1` [Compound 5f] the value was “+ (5 > 5% (relative to ICI): +)”.
